In one data set the target is T1, EGFR-SGLT1 interaction (Homo sapiens, UniProt P00533).
T1 construct: The full-length human EGFR was amplified with a forward primer EGFR-F; expressed in transfected cells; host or cells: HEK293
The data set can be described thus: Immunoprecipitation coupled Western blot of EGFR-HA and SGLT1-Flag interaction in co-transfected HEK293 cells. It is filed as cell-based. The settings on record: WT-EGFR and SGLT1 co-transfected HEK293 cells; EGF 10 ng/ml or EGF plus AEE788 5 μM, 30-60 min; FIG. 3A. A general note: In western blotting, separated proteins are transferred to a membrane and probed.

For data set [1], the target named is T2, endogenous EGFR-SGLT1 interaction (Homo sapiens, UniProt P00533).
T2 construct: endogenous in cells; host or cells: PC3
Kind of data set: Immunoprecipitation coupled Western blot of endogenous EGFR and SGLT1 interaction in PC3 cells. The settings on record: PC3 cells treated with EGF or AEE788; FIG. 3B. The format is cell-based.

The subject of data set [2] is SGLT1. Kind of data set: Western blot of SGLT1 level in SGLT1 and ΔAutoPhos-EGFR co-transfected HEK293 cells. The format is cell-based, human. The settings on record: FIGS. 2C-2D. An excerpt:
In an embodiment, to determine whether proteasome is involved in loss of interaction with EGFR induced down-regulation of SGLT1, SGLT1 and ΔAutoPhos-EGFR co-transfected HEK293 cells can be treated with a proteasome inhibitor, such as but not limited to […]. For example, FIG. 2C illustrates a Western blot analysis of the effect of a proteasome inhibitor MG132 on the down-regulation of SGLT1 by ΔAutophos-EGFR. Actin may be used as a loading control. FIG. 2D, by way of example only, illustrates a densitometric quantification of bands in the Western blot of FIG. 2C. Asterisk marks indicate statistical significance between the linked representative groups from triplicate experiments.
HEK293 cells were transfected with plasmids expressing flagged SGLT1 alone or with indicated HA tagged EGFR constructs. After 24 hours of transfection, cells were washed in 1× phosphate buffered solution and lysed with RIPA buffer (50 mM Tris-HCl, pH 8.0, with 150 mM sodium chloride, 1.0% Igepal CA-630 (NP-40), 0.5% sodium deoxycholate, and 0.1% sodium dodecyl sulfate), supplemented with a protease inhibitors cocktail for 6 hours on a shaker at 4° C. The cell lysates were then centrifuged for 2 minutes at 12000× rpm. Supernatant were then incubated with sepharose protein A/G beads conjugated with anti-flag or anti-SGLT1 antibody for overnight at 4° C. […]

For a further data set, the system named is EGFR. Kind of data set: Western blot of EGFR level in PC3 cells. The format is cell-based. The settings on record: FIG. 5B. An excerpt: (§1) In another embodiment, a peptide can destabilize EGFR and SGLT1 proteins of cancer cells. FIG. 5A, by way of example only, illustrates an embodiment of a peptide, called ESD-01 (SEQ ID NO: 001), which can destabilize EGFR and SGLT1 proteins of cancer cells. In one embodiment, the ESD-01 peptide can be selected from the SGLT1 interacting domain of EGFR. In another embodiment, ESD-01 comprises amino acids 1049-1062 of a human EGFR protein (GenBank: AAH94761.1). In still another embodiment, the effects of ESD-01 on the stability of EGFR and SGLT1 in cultured cells (e.g, PC3, MDA-MB-231, and HCT116 cells) can be determined by Western blot analysis. […] In still another embodiment, the effects of ESD-01 on the survivability of cultured cancer cells (e.g, PC3, MDA-MB-231, and HCT116 cells) can be determined by trypan blue uptake assay.
(§2) For Western blot (WB) analysis, cells were lysed with RIPA buffer (150 mM NaCl, 50 mM Tris-HCl, pH 7.4, 0.1% SDS, 1% TritonX-100, 1 mM EDTA, 1 mM PMSF, 20 μg/ml aprotinin, 20 μg/ml leupeptin, 20 μg/ml pepstatine, 1% sodium deoxycholate, 1 mM NaF, 1 mM Na3VO4, in H2O). Proteins separated by 8% SDS-PAGE were transferred to PVDF membrane followed by blocking with 5% nonfat dry milk and then incubation with primary antibodies at optimized concentrations for overnight at 4° C. […]

In data set [3] the test system is SGLT1. The data set can be described thus: Western blot of SGLT1 level in PC3 cells. The format is cell-based. The settings on record: FIG. 5B.
Text: as §1, §2

A further data set concerns PC3 cells. Kind of data set: MTT cell growth assay, PC3 cells. It is filed as cell-based. The settings on record: phlorizin 50 μM with/without Gefitinib 10 μM or Erlotinib 10 μM, 48 hs, FIG. 4C. As to the method: (§3) It is well known that an increase in glucose levels can activate EGFR, that SGLT1 is over-expressed in prostate cancer tissues, and that prostate cancer is resistant to EGFR inhibitors. […] In an embodiment, SGLT1 and EGFR can synergistically promote prostate cancer growth. […] In one embodiment, the growth inhibitory effects of the treatments may be determined. […]
(§4) Cell growth was determined by 3-(4,5-dimethylthiazole-2-yl)-2,5-diphenyltetrazolium Bromide (MTT) assay in 96-well plates according to the protocol provided by the manufacture. […] Absorbance was measured by a MultiSkan plate reader (Thermo Fisher Scientific, NC) at 570 nm. […] Cell viability was determined by trypan blue uptake assay. The percentage of live cells were counted in areas (n=3 for each sample) randomly selected under 10× magnificence of triplicates. […]
On the technique in general: Formazan colour is commonly taken as a measure of viable cells.

For a further data set, the system named is LNCaP cells. Kind of data set: MTT cell growth assay, LNCaP cells. The format is cell-based. The settings on record: phlorizin 50 μM with/without Gefitinib 10 μM or Erlotinib 10 μM, 48 hs, FIG. 4D. The method, then: as §3, §4
Data set [4] relates to prostate cancer PC3 cells. The data set can be described thus: Trypan blue uptake assay, PC3 cells. It is filed as cell-based. The settings on record: 100 μM for 24 hours, FIG. 6.
Text: as §1
(§5) Cell growth was determined by 3-(4,5-dimethylthiazole-2-yl)-2,5-diphenyltetrazolium Bromide (MTT) assay in 96-well plates according to the protocol provided by the manufacture. Briefly, 5000 cells suspended in 100 μL medium were seeded in each well of a 96-well plate. […] Absorbance was measured by a MultiSkan plate reader (Thermo Fisher Scientific, NC) at 570 nm. […] Cell viability was determined by trypan blue uptake assay. The percentage of live cells were counted in areas (n=3 for each sample) randomly selected under 10× magnificence of triplicates.

The test system of data set [5] is prostate cancer Du145 cells. Kind of data set: Trypan blue uptake assay, Du145 cells. The settings on record: 100 μM for 24 hours, FIG. 6. The format is cell-based.
Text: as §1, §5

The subject of data set [6] is breast cancer MDA-MB-231 cells. Kind of data set: Trypan blue uptake assay, MDA-MB-231 cells. It is filed as cell-based. The settings on record: 100 μM for 24 hours, FIG. 6.
Text: as §1, §5

The test system of data set [7] is colon cancer HCT116 cells. The data set can be described thus: Trypan blue uptake assay, HCT116 cells. It is filed as cell-based. The settings on record: 100 μM for 24 hours, FIG. 6.
Text: as §1, §5

The test system of data set [8] is non-cancerous HEK293 cells. Kind of data set: Trypan blue uptake assay, HEK293 cells. It is filed as cell-based. The settings on record: FIG. 6.
Text: as §1, §5

The next data set relates to cancer cells. The data set can be described thus: Killing of cancer cells in vitro, L- versus D-amino acid peptide. It is filed as cell-based.
The target of data set [9] is T3, wild type EGFR, HA tagged (human, full length, C-terminal HA tag) (human, UniProt P00533 25-1210).
T3 construct: whole, on cells; Expressed by transient transfection in HEK293 cells; tested in RIPA lysates by co-immunoprecipitation; also called WT; WT-EGFR; not shown: C-terminal HA tag
Kind of data set: co-IP of SGLT1-Flag, Western blot for EGFR-HA, HEK293 cells treated with EGF or EGF plus AEE788.

The target of data set [10] is T4, endogenous EGFR of PC3 cells (UniProt P00533 25-1210, limits assumed).
T4 construct: whole, on cells; Co-precipitated from PC3 lysates with endogenous SGLT1
Kind of data set: co-IP of endogenous SGLT1 (anti-SGLT1), Western blot for EGFR and pEGFR, PC3 cells treated with EGF or AEE788.

Entries after “also recorded” stand apart in the source; their conditions may differ. Peptide text beside a SMILES is read from it. * marks the point of attachment. Cbz = O=C(OCc1ccccc1)*

With `CCN1CCN(Cc2ccc(-c3cc4c(N[C@H](C)c5ccccc5)ncnc4[nH]3)cc2)CC1` [AEE788], the “effect on EGFR-SGLT1 interaction (EGFR co-immunoprecipitated with SGLT1)” value on EGFR-SGLT1 interaction was “neither EGF nor AEE788 significantly affects the EGFR-SGLT1 interaction”. The “effect on endogenous EGFR-SGLT1 interaction” value in data set [1] is on record as “neither EGF nor AEE788 affect the EGFR-SGLT1 interaction”.

On to `CC(C)C[C@@H](C=O)NC(=O)[C@H](CC(C)C)NC(=O)[C@H](CC(C)C)NC(=O)OCc1ccccc1` [MG132] (Cbz-Leu-Leu-Leu-aldehyde), for which the “inhibition of down-regulation of SGLT1” value in the data set on SGLT1 [2] is recorded as “can inhibit the down-regulation of SGLT1”. Moreover, the “inhibition of ESD-01 induced EGFR down-regulation” value in the data set with EGFR (ESD-01 200 μM for 6 hours) is on record as “inhibited”. In the data set on SGLT1 [3] (ESD-01 200 μM for 6 hours), the “inhibition of ESD-01 induced SGLT1 down-regulation” value is given as “inhibited”.

As to `O=C(CCc1ccc(O)cc1)c1c(O)cc(O)cc1O[C@@H]1O[C@H](CO)[C@@H](O)[C@H](O)[C@H]1O` [Phlorizin], the “sensitization to growth inhibitory effects of Gefitinib and Erlotinib” value in the data set with PC3 cells and in the data set on LNCaP cells was “sensitizes; also recorded: significantly sensitize” each time.

As for “ESD-01: synthesized peptide from the SGLT1 interacting domain of EGFR; comprises amino acids 1049-1062 of a human EGFR protein (GenBank: AAH94761.1) (LVWKQSCSSTSSTH; listed as Homo sapiens)”, the EGFR level entry in the data set with EGFR (200 μM for 6 hours) is “significantly down-regulates”. For the same molecule, the SGLT1 level entry with SGLT1 [3] (200 μM for 6 hours) was “significantly down-regulates”. For the same molecule, the survivability result is “significantly reduces the survivability” in data set [4]; “significantly reduces the survivability” in data set [5]; “significantly reduces the survivability” in data set [6]; “significantly reduces the survivability” in data set [7]; “cannot reduce the survivability” in data set [8]. Moreover, in the data set on cancer cells, the “killing cancer cells in vitro, peptide made of L-amino acids versus D-amino acids” value is “equally effective”.

B1: flag tagged human SGLT1 (sodium/glucose co-transporter 1) (other, UniProt P13866 1-664, looked up)
chain: MDSSTWSPKTTAVTRPVETHELIRNAADISIIVIYFVVVMAVGLWAMFSTNRGTVGGFFLAGRSMVWWPIGASLFASNIGSGHFVGLAGTGAASGIAIGGFEWNALVLVVVLGWLFVPIYIKAGVVTMPEYLRKRFGGQRIQVYLSLLSLLLYIFTKISADIFSGAIFINLALGLNLYLAIFLLLAITALYTITGGLAAVIYTDTLQTVIMLVGSLILTGFAFHEVGGYDAFMEKYMKAIPTIVSDGNTTFQEKCYTPRADSFHIFRDPLTGDLPWPGFIFGMSILTLWYWCTDQVIVQRCLSAKNMSHVKGGCILCGYLKLMPMFIMVMPGMISRILYTEKIACVVPSECEKYCGTKVGCTNIAYPTLVVELMPNGLRGLMLSVMLASLMSSLTSIFNSASTLFTMDIYAKVRKRASEKELMIAGRLFILVLIGISIAWVPIVQSAQSGQLFDYIQSITSYLGPPIAAVFLLAIFWKRVNEPGAFWGLILGLLIGISRMITEFAYGTGSCMEPSNCPTIICGVHYLYFAIILFAISFITIVVISLLTKPIPDVHLYRLCWSLRNSKEERIDLDAEEENIQEGPKETIEIETQVPEKKKGIFRRAYDLFCGLEQHGAPKMTEEEEKAMKMKMTDTSEKPLWRTVLNVNGIILVTVAVFCHAYFA
notes: whole, on cells; Plasmid described in Blessing et al. 2012; Expressed in HEK293 cells and immunoprecipitated with anti-flag antibody; also called SGLT1-Flag; flagged SGLT1; not shown: Flag tag
Take B1: in [9], the binding result is “binds”.

B2: endogenous SGLT1 of PC3 cells (other, UniProt P13866 1-664, looked up)
chain: MDSSTWSPKTTAVTRPVETHELIRNAADISIIVIYFVVVMAVGLWAMFSTNRGTVGGFFLAGRSMVWWPIGASLFASNIGSGHFVGLAGTGAASGIAIGGFEWNALVLVVVLGWLFVPIYIKAGVVTMPEYLRKRFGGQRIQVYLSLLSLLLYIFTKISADIFSGAIFINLALGLNLYLAIFLLLAITALYTITGGLAAVIYTDTLQTVIMLVGSLILTGFAFHEVGGYDAFMEKYMKAIPTIVSDGNTTFQEKCYTPRADSFHIFRDPLTGDLPWPGFIFGMSILTLWYWCTDQVIVQRCLSAKNMSHVKGGCILCGYLKLMPMFIMVMPGMISRILYTEKIACVVPSECEKYCGTKVGCTNIAYPTLVVELMPNGLRGLMLSVMLASLMSSLTSIFNSASTLFTMDIYAKVRKRASEKELMIAGRLFILVLIGISIAWVPIVQSAQSGQLFDYIQSITSYLGPPIAAVFLLAIFWKRVNEPGAFWGLILGLLIGISRMITEFAYGTGSCMEPSNCPTIICGVHYLYFAIILFAISFITIVVISLLTKPIPDVHLYRLCWSLRNSKEERIDLDAEEENIQEGPKETIEIETQVPEKKKGIFRRAYDLFCGLEQHGAPKMTEEEEKAMKMKMTDTSEKPLWRTVLNVNGIILVTVAVFCHAYFA
notes: whole, on cells; Immunoprecipitated from PC3 lysates with anti-SGLT1 antibody
In the case of B2, the binding result in data set [10] was “binds”.

The values are drawn from patent US9770482B2, “Targeting the EGFR-SGLT1 interaction for cancer therapy” (The University of Houston System, priority 2013, dated 2017).
